This note sets out measurements from patent US7704995B2 (Exelixis, Inc., priority 2003, dated 2010).

The structures appear in SMILES notation.

The experiment deals with T1, Chk1 (Homo sapiens, UniProt O14757).
T1 construct: purchased Upstate Biotechnology
T1 sequence (O14757 1-476): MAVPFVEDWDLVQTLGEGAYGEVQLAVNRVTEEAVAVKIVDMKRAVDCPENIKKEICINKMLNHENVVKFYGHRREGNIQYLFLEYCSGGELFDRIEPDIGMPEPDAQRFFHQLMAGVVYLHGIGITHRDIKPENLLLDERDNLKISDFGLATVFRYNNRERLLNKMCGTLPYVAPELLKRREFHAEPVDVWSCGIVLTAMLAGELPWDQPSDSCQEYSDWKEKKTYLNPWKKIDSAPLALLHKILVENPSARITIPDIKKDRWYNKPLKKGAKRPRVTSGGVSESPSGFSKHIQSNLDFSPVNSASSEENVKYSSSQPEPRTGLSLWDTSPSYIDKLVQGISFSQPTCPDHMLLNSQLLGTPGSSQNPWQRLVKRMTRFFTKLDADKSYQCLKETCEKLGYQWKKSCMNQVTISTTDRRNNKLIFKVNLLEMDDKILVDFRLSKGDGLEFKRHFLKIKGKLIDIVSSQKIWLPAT
The experiment in a line: Chk1 kinase assay: incorporation of γ-33P ATP into immobilized myelin basic protein. It counts as biochemical. The conditions noted are these: read-out: Chk1 IC50. How it is done: Chk1 and Chk2 assays were performed by measuring incorporation of γ-^33P ATP into immobilized myelin basic protein (MBP). High binding white 384 well plates (Greiner) were coated with MBP (Sigma #M-1891) by incubation of 60 ul/well of 20 μg/ml MBP in Tris-buffered saline (TBS; 50 mM Tris pH 8.0, 138 mM NaCl, 2.7 mM KCl) for 24 hours at 4° C. Plates were washed 3× with 100 μl TBS. Kinase reactions were carried out in a total volume of 34 μl in kinase buffer (5 mM Hepes pH 7.6, 15 mM NaCl, 0.01% bovine gamma globulin (Sigma #I-5506), 10 mM MgCl2, 1 mM DTT, 0.02% TritonX-100). Compound dilutions were performed in DMSO and added to assay wells to a final DMSO concentration of 1%. Each data point was measured in duplicate, and at least two duplicate assays were performed for each individual compound determination. Chk1 and Chk2 enzymes (Upstate Biotechnology) were added to final concentrations of 10 nM (Chk1) or 20 nM (Chk2). A mixture of unlabeled ATP and γ-^33P ATP was added to start the reaction (2×10^6 cpm of γ-^33P ATP per well (3000 Ci/mmole) and either 10 μM or 30 μM unlabeled ATP (for Chk1 and Chk2 assays respectively). The reaction was carried out for 1 hour at room temperature with shaking. Plates were washed 7× with TBS, followed by the addition of 50 μl/well scintillation fluid (Wallac). Plates were read using a Wallac Trilux counter. This is only one format of such assays, various other formats are possible, as known to those skilled in the art.
The above assay procedure can be used to determine the IC50 for inhibition and/or the inhibition constant Ki. The IC50 is defined as the concentration of compound required to reduce the enzyme activity by 50% under the conditions of the assay. […] The Ki for a compound may be determined from the IC50 based on three assumptions. First, only one compound molecule binds to the enzyme and there is no cooperativity. […] Third, the enzymatic rate of the enzyme-inhibitor complex is zero. The rate (i.e., compound concentration) data are fitted to the equation: […]
A word on the IC50: it is the concentration at which inhibition is half-maximal. Take `CNC(=O)c1nc(-c2cccc(C(=O)O)c2)cnc1N` [Example 92, 3-{5-amino-6-[(methylamino)carbonyl]pyrazin-2-yl}benzoic acid]: the IC50 is at least 10000 nM.

For `CNC(=O)c1nc(-c2cccc(C(=O)N3CCN(C)CC3)c2)cnc1N` [Example 93, 3-amino-N-methyl-6-{3-[(4-methylpiperazin-1-yl)carbonyl]phenyl}pyrazine-2-carboxamide], the IC50 lay within 1000 to 10000 nM.

On to `CNC(=O)c1nc(-c2cccc(C(=O)NCCc3ccccc3)c2)cnc1N` [Example 94, 3-amino-N-methyl-6-(3-{[(2-phenylethyl)amino]carbonyl}phenyl)pyrazine-2-carboxamide], for which the IC50 was 50 to 1000 nM.

Take `CNC(=O)c1nc(-c2cccc(C(=O)NCc3ccc(OC)cc3)c2)cnc1N` [Example 95, 3-amino-N-methyl-6-{3-[({[4-(methyloxy)phenyl]methyl}amino)carbonyl]phenyl}pyrazine-2-carboxamide]: the IC50 lay within 50 to 1000 nM. Next, `CNC(=O)c1nc(-c2cccc(C(=O)N[C@@H]3CCc4ccccc43)c2)cnc1N` [Example 96, 3-amino-6-(3-{[(1R)-2,3-dihydro-1H-inden-1-ylamino]carbonyl}phenyl)-N-methylpyrazine-2-carboxamide]: 1000 to 10000 nM; `CNC(=O)c1nc(-c2cccc(C(=O)N[C@H]3CCc4ccccc43)c2)cnc1N` [Example 97, 3-amino-6-(3-{[(1S)-2,3-dihydro-1H-inden-1-ylamino]carbonyl}phenyl)-N-methylpyrazine-2-carboxamide]: 50 to 1000 nM. As to `CNC(=O)c1nc(-c2cccc(C(=O)NCc3ccc(Cl)cc3)c2)cnc1N` [Example 98, 3-amino-6-[3-({[(4-chlorophenyl)methyl]amino}carbonyl)phenyl]-N-methylpyrazine-2-carboxamide], the IC50 fell in the range of 50 to 1000 nM. With `CNC(=O)c1nc(-c2cccc(C(=O)N(C)Cc3ccccc3)c2)cnc1N` [Example 99, 3-amino-N-methyl-6-(3-{[methyl(phenylmethyl)amino]carbonyl}phenyl)pyrazine-2-carboxamide], the concentration for half-maximal inhibition (IC50) was 1000 to 10000 nM. Next, `CNC(=O)c1nc(-c2cccc(C(=O)NCc3ccc(Cl)cc3Cl)c2)cnc1N` [Example 100, 3-amino-6-[3-({[(2,4-dichlorophenyl)methyl]amino}carbonyl)phenyl]-N-methylpyrazine-2-carboxamide]: 50 to 1000 nM; `CNC(=O)c1nc(-c2cccc(C(=O)NCc3ccc(C)cc3)c2)cnc1N` [Example 101, 3-amino-N-methyl-6-[3-({[(4-methylphenyl)methyl]amino}carbonyl)phenyl]pyrazine-2-carboxamide]: 50 to 1000 nM; `CNC(=O)c1nc(-c2cccc(C(=O)NCc3ccc(C(F)(F)F)cc3)c2)cnc1N` [Example 102, 3-amino-N-methyl-6-{3-[({[4-(trifluoromethyl)phenyl]methyl}amino)carbonyl]phenyl}pyrazine-2-carboxamide]: 50 to 1000 nM. Then `CNC(=O)c1nc(-c2cccc(C(=O)NCc3ccc(F)cc3)c2)cnc1N` [Example 103, 3-amino-6-[3-({[(4-fluorophenyl)methyl]amino}carbonyl)phenyl]-N-methylpyrazine-2-carboxamide], with 50 to 1000 nM; and `CNC(=O)c1nc(-c2cccc(C(=O)NC3Cc4ccccc4C3)c2)cnc1N` [Example 104, 3-amino-6-{3-[(2,3-dihydro-1H-inden-2-ylamino)carbonyl]phenyl}-N-methylpyrazine-2-carboxamide], with 50 to 1000 nM.

Consider `CNC(=O)c1nc(-c2cccc(NC(=O)c3cccc(OC)c3)c2)cnc1N` [Example 105, 3-amino-N-methyl-6-[3-({[3-(methyloxy)phenyl]carbonyl}amino)phenyl]pyrazine-2-carboxamide], for which the IC50 lay within 50 to 1000 nM. Regarding `CNC(=O)c1nc(-c2cccc(NC(=O)c3ccc(OC)cc3)c2)cnc1N` [Example 106, 3-amino-N-methyl-6-[3-({[4-(methyloxy)phenyl]carbonyl}amino)phenyl]pyrazine-2-carboxamide], the IC50 lay within 50 to 1000 nM.

For `CNC(=O)c1nc(-c2cccc(C(=O)NCc3cccc(OC)c3)c2)cnc1N` [Example 107, 3-amino-N-methyl-6-{3-[({[3-(methyloxy)phenyl]methyl}amino)carbonyl]phenyl}pyrazine-2-carboxamide], the IC50 fell in the range of 50 to 1000 nM. Turning to `CNC(=O)c1nc(-c2cccc(C(=O)N[C@H](C)c3ccc(OC)cc3)c2)cnc1N` [Example 108, 3-amino-N-methyl-6-{3-[({(1R)-1-[4-(methyloxy)phenyl]ethyl}amino)carbonyl]phenyl}pyrazine-2-carboxamide], the IC50 is 1000 to 10000 nM.

For `CNC(=O)c1nc(-c2cccc(C(=O)NCc3ccccc3C(F)(F)F)c2)cnc1N` [Example 109, 3-amino-N-methyl-6-{3-[({[2-(trifluoromethyl)phenyl]methyl}amino)carbonyl]phenyl}pyrazine-2-carboxamide], the concentration for half-maximal inhibition (IC50) fell in the range of 50 to 1000 nM. In the case of `CNC(=O)c1nc(-c2cccc(C(=O)NCc3cccc(F)c3)c2)cnc1N` [Example 110, 3-amino-6-[3-({[(3-fluorophenyl)methyl]amino}carbonyl)phenyl]-N-methylpyrazine-2-carboxamide], the concentration for half-maximal inhibition (IC50) fell in the range of 50 to 1000 nM.

Turning to `CNC(=O)c1nc(-c2cccc(NC(=O)c3ccc(Cl)cc3)c2)cnc1N` [Example 111, 3-amino-6-(3-{[(4-chlorophenyl)carbonyl]amino}phenyl)-N-methylpyrazine-2-carboxamide], the IC50 was in the range of 50 to 1000 nM. As for `CNC(=O)c1nc(-c2cccc(C(=O)NC(C)c3ccc(F)cc3)c2)cnc1N` (centres unmarked) [Example 112, 3-amino-6-[3-({[1-(4-fluorophenyl)ethyl]amino}carbonyl)phenyl]-N-methylpyrazine-2-carboxamide], the IC50 was 1000 to 10000 nM.

As to `CNC(=O)c1nc(-c2cccc(C(=O)NCc3cccc(OC)c3OC)c2)cnc1N` [Example 113, 3-amino-6-{3-[({[2,3-bis(methyloxy)phenyl]methyl}amino)carbonyl]phenyl}-N-methylpyrazine-2-carboxamide], the IC50 is 50 to 1000 nM.

Consider `CNC(=O)c1nc(-c2cccc(C(=O)N(Cc3ccccc3)Cc3ccccc3)c2)cnc1N` [Example 114, 3-amino-6-(3-{[bis(phenylmethyl)amino]carbonyl}phenyl)-N-methylpyrazine-2-carboxamide], for which the IC50 lay within 1000 to 10000 nM.

On to `CNC(=O)c1nc(-c2cccc(C(=O)NCc3ccc(OC)cc3OC)c2)cnc1N` [Example 115, 3-amino-6-{3-[({[2,4-bis(methyloxy)phenyl]methyl}amino)carbonyl]phenyl}-N-methylpyrazine-2-carboxamide], for which the IC50 is 50 to 1000 nM. Then `CCN(Cc1ccncc1)C(=O)c1cccc(-c2cnc(N)c(C(=O)NC)n2)c1` [Example 116, 3-amino-6-(3-{[ethyl(pyridin-4-ylmethyl)amino]carbonyl}phenyl)-N-methylpyrazine-2-carboxamide], with 1000 to 10000 nM; and `CNC(=O)c1nc(-c2cccc(C(=O)N3CCN(Cc4ccccc4)CC3)c2)cnc1N` [Example 117, 3-amino-N-methyl-6-(3-{[4-(phenylmethyl)piperazin-1-yl]carbonyl}phenyl)pyrazine-2-carboxamide], with 1000 to 10000 nM; and `CNC(=O)c1nc(-c2cccc(C(=O)NC3CCN(Cc4ccccc4)CC3)c2)cnc1N` [Example 118, 3-amino-N-methyl-6-[3-({[1-(phenylmethyl)piperidin-4-yl]amino}carbonyl)phenyl]pyrazine-2-carboxamide], with 50 to 1000 nM. As for `CNC(=O)c1nc(-c2cccc(NC(=O)c3ccc(C)cc3)c2)cnc1N` [Example 119, 3-amino-N-methyl-6-(3-{[(4-methylphenyl)carbonyl]amino}phenyl)pyrazine-2-carboxamide], the half-inhibitory concentration (IC50) fell in the range of 50 to 1000 nM.

With `CNC(=O)c1nc(-c2cccc(C(=O)NCc3cnc(C)cn3)c2)cnc1N` [Example 120, 3-amino-N-methyl-6-[3-({[(5-methylpyrazin-2-yl)methyl]amino}carbonyl)phenyl]pyrazine-2-carboxamide], the IC50 was in the range of 1000 to 10000 nM.
